{"source": "patent US12102618B2", "about": "“Use of riluzole prodrugs to treat ataxias” (Biohaven Therapeutics Ltd., priority 2017, dated 2024)", "format_in_all_cases": "in vivo, human", "key": {"[1]": {"tested_on": "subjects with spinocerebellar ataxia (SCA)", "experiment": "Same trial: Patient Global Impression of Change (PGI-C)", "text": "This is a patient self-reported global index scale that may be used to rate the response of a condition to a therapy.\n(§1) Study Type: Interventional Study Design: Allocation: Randomized • Intervention Model: Parallel Assignment • Masking: Quadruple (Participant, Care Provider, Investigator, Outcomes Assessor) • Primary Purpose: Treatment • Official Title: A Phase IIb/III, Randomized, Double-blind, Placebo-controlled Trial of BHV-4157 in Adult Subjects With Spinocerebellar Ataxia Primary Outcome Measures: • To measure the change in total score on the Scale for Assessment and Rating of Ataxia (SARA) [Time Frame: The change in total score from baseline to week 8.] Secondary Outcome Measures: • To assess the safety and tolerability of BHV-4157 in subjects with SCA by measuring the frequency and severity of adverse events and discontinuations of adverse events. [Time Frame: Baseline to week 8.] Measured by the frequency and severity of adverse events and discontinuations of adverse events. • To compare efficacy of BHV-4157 with placebo on patient impression of benefit via use of the PGI-C [Time Frame: Baseline to Week 8] Change in PGI-C score\n(§2) The study is a Phase IIb/III, multicenter, randomized, double-blind, 2-arm placebo-controlled parallel-group study designed to assess safety, tolerability, and efficacy signals in a population of patients with Spinocerebellar Ataxia (SCA). Subjects will be randomized to receive placebo (QD) or BHV-4157 (140 mg QD), stratified by diagnosis (genotype) and baseline severity (Gait Item of the SARA of ≤4 and >4). Subjects with SCA3 genotype will be limited to comprise up to approximately 10% of the total population so that this most common type of SCA is not over-represented."}, "[2]": {"tested_on": "patients with Spinocerebellar Ataxia (SCA)", "experiment": "BHV4157-201 open-label extension phase, interim analysis: modified SARA (axial items)", "text": "This example describes a study entitled: Interim Extension Phase Analyses of Study BHV4157-201: Phase IIb/III, Randomized, Double-blind, Placebo-controlled Trial of Troriluzole (BHV-4157) in Adult Subjects with Spinocerebellar Ataxia followed by 96-Week Open-Label Extension Phase.\nTo date, all subjects have had the chance to complete the Week 24 visit from the long term, open-label extension phase of the trial.\nBHV4157-201 is an on-going Phase IIb/III, multicenter, randomized, double-blind, 2-arm placebo-controlled parallel-group study designed to assess safety, tolerability, and efficacy in a population of patients with Spinocerebellar Ataxia (SCA). The study is comprised of two periods: an 8-week randomization period, followed by a 96-week open-label extension period. Regarding key entry criteria, subjects were male and female outpatients between the ages of 18-75 years, inclusive, with a known or suspected diagnosis of the following hereditary ataxias: SCA1, SCA2, SCA3, SCA6, SCA7, SCA8 and SCA10. All subjects completed genetic testing to confirm the diagnosis of hereditary ataxias. The primary objective of the study is to compare the efficacy of troriluzole versus placebo on ataxia symptoms in patients with SCA as measured by the total score on the Scale for the Assessment and Rating of Ataxia (SARA). Secondary objectives include assessments of functional disability, non-ataxia symptoms associated with SCA, global functioning, performance-based measures of ataxia, and neuropsychiatric and cognitive functioning.\nDuring the 8-week Randomization Phase of the study, which has been completed, 141 subjects were randomized, in a 1:1 ratio, to receive either BHV-4157 (140 mg daily) or Placebo. Subjects completing the Randomization Phase were offered approximately 96 weeks of open-label treatment, provided the investigator believed open-label treatment offered an acceptable risk-benefit profile."}, "[3]": {"tested_on": "subjects with spinocerebellar ataxia (SCA)", "experiment": "Same trial: Clinical Global Impression-Global Improvement (CGI-I)", "description": "Clinical Global Impression-Global Improvement (CGI-I)\nas §2"}, "[4]": {"experiment": "Tolerability in BHV4157-201 trial", "conditions": "patients with SCA", "text": "as §1, with “Secondary Outcome Measures: • To assess the safety and tolerability of BHV-4157 in subjects with SCA by measuring the frequency and severity of adverse events and discontinuations of adverse events. [Time Frame: Baseline to week 8.]” left out, “Change in PGI-C score” left out\nBHV4157-201 is an on-going Phase IIb/III, multicenter, randomized, double-blind, 2-arm placebo-controlled parallel-group study designed to assess safety, tolerability, and efficacy in a population of patients with Spinocerebellar Ataxia (SCA). […] The primary objective of the study is to compare the efficacy of troriluzole versus placebo on ataxia symptoms in patients with SCA as measured by the total score on the Scale for the Assessment and Rating of Ataxia (SARA). […]"}, "[5]": {"tested_on": "subjects with spinocerebellar ataxia (SCA)", "experiment": "Further analysis of Example 1 study: Modified SARA, 8 week change from baseline", "conditions": "for change in SARA score (difference BHV-4157 vs placebo): enriched genotypes", "text": "This example describes a further analysis of the study of Example 1."}, "[6]": {"tested_on": "ataxia symptoms in subjects with spinocerebellar ataxia (SCA)", "experiment": "Phase IIb/III randomized, double-blind, placebo-controlled trial of BHV-4157 in SCA (BHV4157-201), 8-week randomization phase: SARA", "conditions": "Females", "description": "One measure for assessment of the methods of the present invention is by using the Scale for the Assessment and Rating of Ataxia (“SARA”).\nThe SARA was developed as a clinician-administered instrument to measure severity of symptoms in patients with SCA. While there are multiple scales available, the SARA has been tested in many patients with SCA.\nThe SARA scores range from 0 (no ataxia) to 40 (severe). The SARA takes approximately 15 minutes to administer. Assessed items include: • Gait (rated 0 to 8) • Stance (0 to 6) • Sitting (0 to 4) • Speech disturbance (0 to 6) • Finger chase (0 to 4) • Nose-finger test (0 to 4) • Fast alternating hand movements (0 to 4) • Heel-shin slide (0 to 4)\nOnce each of the 8 categories has been assessed, the total score is calculated to determine the severity of ataxia. For motor activities of the four extremities (items 5-8), assessments are performed bilaterally and the mean values are used to obtain the total score.\nThe purpose of this study is to compare the efficacy of BHV-4157 versus placebo on ataxia symptoms in subjects with spinocerebellar ataxia (SCA).\nas §1, §2\nDosing will continue for 8 weeks. Subjects will return to the clinic two weeks after discontinuing study medication for a follow-up safety visit. In addition, subjects completing the Randomization Phase will be offered 48 weeks of open-label treatment as long as the PI believes open-label treatment offers an acceptable risk-benefit profile. Subjects who agree to enter the Extension Phase will not be required to wash-out of drug or complete the follow-up safety visit, but instead should continue dosing as specified in the extension phase. Subjects entering the Extension Phase would have their first Extension Visit four weeks after the Week 8 Randomization Phase visit. If there is a delay of two weeks or more in dosing between the Randomization Phase and the Extension Phase, subjects will be required to complete an Extension Baseline Visit. Thereafter, subjects will undergo visits every fourth week through Week 12 of this phase. Then subjects will undergo visits every 12 weeks up to Week 48 of this phase."}}}
{"smiles": "CN(CC(=O)Nc1nc2ccc(OC(F)(F)F)cc2s1)C(=O)CNC(=O)CN", "note": "[BHV-4157, troriluzole]", "values": [{"measurement": "PGI Better and Definite . . .", "setting": "[1]; Lighter at EXP sites", "result": 19, "unit": "%"}, {"measurement": "PGI Any Improvement", "setting": "[1]; Lighter at EXP sites, n = 16", "result": "45% (n = 16)"}, {"measurement": "PGI “Better and Definite Improvement that has made a real & worthwhile difference”", "setting": "[1]; Lighter sample", "result": 17, "unit": "%"}, {"measurement": "PGI Any Improvement", "setting": "[1]; Lighter sample, n = 23", "result": "34% (n = 23)"}, {"measurement": "Mod SARA change (SD) from Randomization Baseline", "setting": "[2]; All Patients, 8 weeks", "result": "−0.4 (1.50)"}, {"measurement": "Mod SARA change (SD) from Randomization Baseline", "setting": "[2]; All Patients, 36 weeks", "result": "−0.1 (1.30)"}, {"measurement": "Mod SARA change (SD) from Randomization Baseline", "setting": "[2]; Female Subgroup, 8 weeks", "result": "−0.3 (1.48)"}, {"measurement": "Mod SARA change (SD) from Randomization Baseline", "setting": "[2]; Female Subgroup, 24 weeks", "result": "−0.4 (1.32)"}, {"measurement": "Mod SARA change (SD) from Randomization Baseline", "setting": "[2]; Female Subgroup, 36 weeks", "result": "−0.1 (1.41)"}, {"measurement": "Mod SARA change (SD) from Randomization Baseline", "setting": "[2]; Female Subgroup, 48 weeks", "result": "−0.1 (1.50)"}, {"measurement": "Mod SARA change (SD) from Randomization Baseline", "setting": "[2]; Low Weight Subgroup, 8 weeks", "result": "−0.6 (1.56)"}, {"measurement": "Mod SARA change (SD) from Randomization Baseline", "setting": "[2]; Low Weight Subgroup, 24 weeks", "result": "−0.5 (1.44)"}, {"measurement": "Mod SARA change (SD) from Randomization Baseline", "setting": "[2]; Low Weight Subgroup, 36 weeks", "result": "−0.3 (1.34)"}, {"measurement": "Mod SARA change (SD) from Randomization Baseline", "setting": "[2]; Low Weight Subgroup, 48 weeks", "result": "−0.2 (1.41)"}, {"measurement": "Mod SARA change (SD) from Randomization Baseline", "setting": "[2]; Non-SCA1 & SCA2, 8 weeks", "result": "−0.3 (1.58)"}, {"measurement": "Mod SARA change (SD) from Randomization Baseline", "setting": "[2]; Non-SCA1 & SCA2, 24 weeks", "result": "−0.3 (1.24)"}, {"measurement": "Mod SARA change (SD) from Randomization Baseline", "setting": "[2]; Non-SCA1 & SCA2, 36 weeks", "result": "−0.1 (1.44)"}, {"measurement": "Mod SARA change (SD) from Randomization Baseline", "setting": "[2]; Non-SCA1 & SCA2, 48 weeks", "result": "−0.2 (1.44)"}, {"measurement": "Mod SARA change (SD) from Randomization Baseline", "setting": "[2]; SCA1 & SCA2, 8 weeks", "result": "−0.5 (1.47)"}, {"measurement": "Mod SARA change (SD) from Randomization Baseline", "setting": "[2]; SCA1 & SCA2, 24 weeks", "result": "−0.4 (1.45)"}, {"measurement": "Mod SARA change (SD) from Randomization Baseline", "setting": "[2]; SCA1 & SCA2, 36 weeks", "result": "−0.1 (1.20)"}, {"measurement": "Mod SARA change (SD) from Randomization Baseline", "setting": "[2]; SCA1 & SCA2, 48 weeks", "result": "0.1 (1.44)"}, {"measurement": "improvement in the axial SARA score", "setting": "[2]; at 6 months", "result": "−0.1", "unit": "point"}, {"measurement": "CGI Much Improved", "setting": "[3]; Lighter at EXP sites", "result": 14, "unit": "%"}, {"measurement": "CGI Any Improvement", "setting": "[3]; Lighter at EXP sites, n = 15", "result": "60% (n = 15)"}, {"measurement": "CGI Much Improved", "setting": "[3]; Lighter sample", "result": 27, "unit": "%"}, {"measurement": "CGI Any Improvement", "setting": "[3]; Lighter sample, n = 22", "result": "64% (n = 22)"}, {"measurement": "tolerability profile", "setting": "[4]", "result": "favorable"}, {"measurement": "Modified SARA, week 8 StdChg", "setting": "[5]; All SCA, n = 63, May-18", "result": 0.453}, {"measurement": "Modified SARA, week 8 Δ Mean", "setting": "[5]; All SCA, n = 63, May-18", "result": "−0.429"}, {"measurement": "Modified SARA, week 8 StdChg", "setting": "[5]; SCA1 and SCA2, first Stable column, n = 31", "result": 0.405}, {"measurement": "Modified SARA, week 8 Δ Mean", "setting": "[5]; SCA1 and SCA2, first column headed Stable (−1 < diff < 1), n = 31, Stable 2 in Table 16", "result": "−0.387"}, {"measurement": "Modified SARA, week 8 StdChg", "setting": "[5]; SCA1 and SCA2, n = 33", "result": 0.399}, {"measurement": "Modified SARA, week 8 Δ Mean", "setting": "[5]; SCA1 and SCA2, n = 33, May-18", "result": "−0.424"}, {"measurement": "Modified SARA, week 8 StdChg", "setting": "[5]; SCA1 and SCA2, second Stable column, n = 14", "result": 0.313}, {"measurement": "Modified SARA, week 8 Δ Mean", "setting": "[5]; SCA1 and SCA2, second column headed Stable (−1 < diff < 1), n = 14, Stable 1 in Table 16", "result": "−0.286"}, {"measurement": "change in SARA score (difference BHV-4157 vs placebo)", "setting": "[5]; stable 2 group, 8 weeks", "result": 0.24}, {"measurement": "change in SARA score (difference BHV-4157 vs placebo)", "setting": "[5]; stable group 1, 8 weeks", "result": 0.20}, {"measurement": "Responder Analysis, ≥3 points in All Subjects (n = 67)", "setting": "[6]", "result": 32, "unit": "%"}]}
